From article PMC11527646, “Pharmacological blockade of the mast cell MRGPRX2 receptor supports investigation of its relevance in skin disorders” (Frontiers in Immunology, 2024)
Values joined by “and” are separate entries in the source; they are usually repeats but may differ in a detail not shown here. Equal values may be shown once. “Also recorded” adds a separate entry of the source. Read-outs that look alike come from different tables or passages of the source.

Assays:
NK1 receptor (TACR1) = NK1 receptor (TACR1) (Homo sapiens, UniProt P25103); experiment: GPCR selectivity cellular assay; assay type: cell-based; settings: Antagonism; read-out: Antagonist Activity (IC50)
Sequence of NK1 receptor (TACR1) (P25103 whole entry): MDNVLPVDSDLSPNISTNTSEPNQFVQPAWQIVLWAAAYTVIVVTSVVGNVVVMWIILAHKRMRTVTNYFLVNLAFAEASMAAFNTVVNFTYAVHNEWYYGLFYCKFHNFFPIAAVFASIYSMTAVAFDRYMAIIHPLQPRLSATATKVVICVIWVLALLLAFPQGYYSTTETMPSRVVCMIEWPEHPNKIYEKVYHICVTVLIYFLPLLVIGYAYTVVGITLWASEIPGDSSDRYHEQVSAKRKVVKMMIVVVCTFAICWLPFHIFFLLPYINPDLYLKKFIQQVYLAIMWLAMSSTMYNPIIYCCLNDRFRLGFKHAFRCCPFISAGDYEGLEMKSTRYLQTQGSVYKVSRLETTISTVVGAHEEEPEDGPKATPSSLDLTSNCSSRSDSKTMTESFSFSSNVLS
Method: (§1) tagonists, with little activity detected on other GPCRs. Antagonist and/or agonist activities of the two compounds were determined in cellular assays for 20 human G-protein coupled receptors (GPCR) beside MRGPRX2. Recombinant over-expression systems in mammalian cells were used for all assays listed in this table. […]
(§2) reported as ‘>’ the highest compound concentration allowed in that assay.
(§3) GPCR Target Name Gene symbol Mode of Activity Compound-A Compound-B […]
(§4) Agonist Activity (EC50 ) or Antagonist Activity (IC50 ), nM […]

5-HT2B receptor (HTR2B) = 5-HT2B receptor (HTR2B) (Homo sapiens, UniProt P41595); experiment: GPCR selectivity cellular assay; assay type: cell-based; settings: Agonism; read-out: Agonist Activity (EC50)
Sequence of 5-HT2B receptor (HTR2B) (P41595 whole entry): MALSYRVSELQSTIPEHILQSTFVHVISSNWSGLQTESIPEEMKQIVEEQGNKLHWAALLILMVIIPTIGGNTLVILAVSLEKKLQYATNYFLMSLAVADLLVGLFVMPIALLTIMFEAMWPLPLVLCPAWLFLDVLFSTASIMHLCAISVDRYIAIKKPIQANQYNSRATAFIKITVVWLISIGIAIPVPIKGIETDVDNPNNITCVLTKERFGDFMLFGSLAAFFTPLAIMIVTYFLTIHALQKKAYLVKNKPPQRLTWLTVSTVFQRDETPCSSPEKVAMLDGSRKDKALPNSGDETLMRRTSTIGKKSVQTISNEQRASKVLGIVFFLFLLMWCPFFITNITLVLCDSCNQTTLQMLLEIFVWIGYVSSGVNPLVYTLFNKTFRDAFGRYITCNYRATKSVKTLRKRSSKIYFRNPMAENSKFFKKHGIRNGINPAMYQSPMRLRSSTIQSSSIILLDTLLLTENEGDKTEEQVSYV
Method: as §1, §2, §3, §4

5-HT1B receptor (HTR1B) = target: T1, 5-HT1B receptor (HTR1B) (Homo sapiens, UniProt P28222); experiment: GPCR selectivity cellular assay; assay type: cell-based; settings: Agonism; read-out: Agonist Activity (EC50)
T1 construct: expressed in transfected cells
T1 sequence (P28222 whole entry): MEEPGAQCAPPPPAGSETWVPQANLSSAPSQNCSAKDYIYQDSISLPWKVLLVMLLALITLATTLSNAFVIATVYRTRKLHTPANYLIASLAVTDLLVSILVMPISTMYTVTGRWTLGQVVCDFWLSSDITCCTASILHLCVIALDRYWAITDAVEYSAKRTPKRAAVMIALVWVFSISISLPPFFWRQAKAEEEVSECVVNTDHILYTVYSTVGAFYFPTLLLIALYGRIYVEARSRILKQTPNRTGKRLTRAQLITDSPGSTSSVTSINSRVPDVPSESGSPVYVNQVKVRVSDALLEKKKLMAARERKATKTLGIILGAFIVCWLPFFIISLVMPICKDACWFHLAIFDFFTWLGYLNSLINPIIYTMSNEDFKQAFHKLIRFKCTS
Method: as §1, §2, §3, §4

M1 receptor (CHRM1) = target: T2, M1 receptor (CHRM1) (Homo sapiens, UniProt P11229); experiment: GPCR selectivity cellular assay; assay type: cell-based; settings: for EC50: Agonism, read-out: Agonist Activity (EC50); for IC50: Antagonism, read-out: Antagonist Activity (IC50)
T2 construct: expressed in transfected cells
T2 sequence (P11229 1-460): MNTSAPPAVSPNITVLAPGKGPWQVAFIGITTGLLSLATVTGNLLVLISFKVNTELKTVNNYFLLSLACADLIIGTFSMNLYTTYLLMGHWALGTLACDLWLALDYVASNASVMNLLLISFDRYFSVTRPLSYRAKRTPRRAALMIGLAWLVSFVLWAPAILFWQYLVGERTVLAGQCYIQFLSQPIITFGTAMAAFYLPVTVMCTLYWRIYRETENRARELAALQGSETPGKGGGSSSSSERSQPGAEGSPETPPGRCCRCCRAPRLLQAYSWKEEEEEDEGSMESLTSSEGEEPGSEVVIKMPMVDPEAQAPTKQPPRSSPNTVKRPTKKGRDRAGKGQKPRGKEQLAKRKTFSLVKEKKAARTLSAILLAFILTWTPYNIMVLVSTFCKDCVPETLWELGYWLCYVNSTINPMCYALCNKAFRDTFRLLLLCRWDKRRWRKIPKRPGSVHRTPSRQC
Method: as §1, §2, §3, §4

k-Receptor (OPRK1) = k-Receptor (OPRK1) (Homo sapiens, UniProt P41145); experiment: GPCR selectivity cellular assay; assay type: cell-based
Sequence of k-Receptor (OPRK1) (P41145 whole entry): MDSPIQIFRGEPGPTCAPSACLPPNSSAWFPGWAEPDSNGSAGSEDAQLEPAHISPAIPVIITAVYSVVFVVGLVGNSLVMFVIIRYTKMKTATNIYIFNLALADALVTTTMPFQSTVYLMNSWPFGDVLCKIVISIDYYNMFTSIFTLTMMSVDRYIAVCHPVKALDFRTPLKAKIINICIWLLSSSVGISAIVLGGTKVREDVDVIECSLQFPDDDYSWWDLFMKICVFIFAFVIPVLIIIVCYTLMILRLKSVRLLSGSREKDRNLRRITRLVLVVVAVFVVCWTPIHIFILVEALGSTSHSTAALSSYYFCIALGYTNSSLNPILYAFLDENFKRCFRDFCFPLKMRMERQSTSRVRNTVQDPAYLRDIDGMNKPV
Method: as §1, §2, §3, §4

D1 receptor (DRD1) = target: T3, D1 receptor (DRD1) (Homo sapiens, UniProt P21728); experiment: GPCR selectivity cellular assay; assay type: cell-based; settings: Antagonism; read-out: Antagonist Activity (IC50)
T3 construct: expressed in transfected cells
T3 sequence (P21728 whole entry): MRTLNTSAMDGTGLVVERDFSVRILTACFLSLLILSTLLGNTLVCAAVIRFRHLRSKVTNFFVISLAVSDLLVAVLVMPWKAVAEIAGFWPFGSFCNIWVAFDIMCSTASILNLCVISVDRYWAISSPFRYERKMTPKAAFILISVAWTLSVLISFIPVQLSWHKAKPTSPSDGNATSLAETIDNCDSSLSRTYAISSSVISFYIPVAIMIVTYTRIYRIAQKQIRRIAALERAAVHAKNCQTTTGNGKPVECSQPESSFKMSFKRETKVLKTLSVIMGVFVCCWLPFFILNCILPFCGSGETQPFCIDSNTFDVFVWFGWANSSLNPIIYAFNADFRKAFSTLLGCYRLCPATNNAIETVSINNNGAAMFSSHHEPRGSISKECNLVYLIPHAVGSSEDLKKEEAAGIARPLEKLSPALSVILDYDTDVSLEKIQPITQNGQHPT
Method: as §1, §2, §3, §4

[1] = target: T4, a1B-Adrenoreceptor (ADRA1B) (Homo sapiens, UniProt P35368); experiment: GPCR selectivity cellular assay; assay type: cell-based; settings: Antagonism; read-out: Antagonist Activity (IC50)
T4 construct: expressed in transfected cells
T4 sequence (P35368 whole entry): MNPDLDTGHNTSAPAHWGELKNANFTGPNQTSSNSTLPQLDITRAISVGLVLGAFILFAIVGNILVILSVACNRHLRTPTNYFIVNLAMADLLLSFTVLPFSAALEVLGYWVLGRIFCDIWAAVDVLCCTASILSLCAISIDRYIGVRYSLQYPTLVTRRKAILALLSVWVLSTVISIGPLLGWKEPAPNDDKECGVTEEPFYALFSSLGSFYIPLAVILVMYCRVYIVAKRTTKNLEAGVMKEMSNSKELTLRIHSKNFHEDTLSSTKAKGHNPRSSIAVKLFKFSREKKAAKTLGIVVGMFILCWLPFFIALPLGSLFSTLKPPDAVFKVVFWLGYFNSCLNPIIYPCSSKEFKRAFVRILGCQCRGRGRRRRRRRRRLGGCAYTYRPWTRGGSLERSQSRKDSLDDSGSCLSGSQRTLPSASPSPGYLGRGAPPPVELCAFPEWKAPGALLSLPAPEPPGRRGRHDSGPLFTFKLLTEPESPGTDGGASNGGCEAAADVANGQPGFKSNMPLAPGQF
Method: as §1, §2, §3, §4

5-HT2A receptor (HTR2A) = 5-HT2A receptor (HTR2A) (Homo sapiens, UniProt P28223); experiment: GPCR selectivity cellular assay; assay type: cell-based
Sequence of 5-HT2A receptor (HTR2A) (P28223 whole entry): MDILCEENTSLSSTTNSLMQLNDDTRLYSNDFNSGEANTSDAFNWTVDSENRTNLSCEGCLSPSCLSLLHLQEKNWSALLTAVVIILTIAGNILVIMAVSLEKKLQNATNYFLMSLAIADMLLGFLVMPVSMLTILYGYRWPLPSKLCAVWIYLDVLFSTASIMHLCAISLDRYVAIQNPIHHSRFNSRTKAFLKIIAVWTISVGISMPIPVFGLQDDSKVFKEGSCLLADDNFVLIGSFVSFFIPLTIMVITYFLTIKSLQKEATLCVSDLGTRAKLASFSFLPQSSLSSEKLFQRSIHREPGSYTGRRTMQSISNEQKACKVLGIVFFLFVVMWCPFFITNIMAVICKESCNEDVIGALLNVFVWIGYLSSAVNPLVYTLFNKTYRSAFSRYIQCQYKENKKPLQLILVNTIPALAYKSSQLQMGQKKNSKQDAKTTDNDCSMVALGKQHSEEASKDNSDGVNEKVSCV
Method: as §1, §2, §3, §4

V1A receptor (AVPR1A) = target: T5, V1A receptor (AVPR1A) (Homo sapiens, UniProt P37288); experiment: GPCR selectivity cellular assay; assay type: cell-based; settings: Antagonism; read-out: Antagonist Activity (IC50)
T5 construct: expressed in transfected cells
T5 sequence (P37288 whole entry): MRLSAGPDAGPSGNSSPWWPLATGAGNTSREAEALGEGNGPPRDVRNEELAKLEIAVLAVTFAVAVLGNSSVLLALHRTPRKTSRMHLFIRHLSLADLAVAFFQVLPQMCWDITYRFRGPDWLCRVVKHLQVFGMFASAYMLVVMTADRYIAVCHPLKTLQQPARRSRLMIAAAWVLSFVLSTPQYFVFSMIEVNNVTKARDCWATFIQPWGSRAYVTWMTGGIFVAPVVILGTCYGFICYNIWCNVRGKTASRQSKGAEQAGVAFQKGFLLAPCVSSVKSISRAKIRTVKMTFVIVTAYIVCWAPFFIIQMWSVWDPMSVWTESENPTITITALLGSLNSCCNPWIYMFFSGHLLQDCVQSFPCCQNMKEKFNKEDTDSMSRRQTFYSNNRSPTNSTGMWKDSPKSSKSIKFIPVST
Method: as §1, §2, §3, §4

H1 receptor (HRH1) = target: T6, H1 receptor (HRH1) (Homo sapiens, UniProt P35367); experiment: GPCR selectivity cellular assay; assay type: cell-based; settings: Antagonism; read-out: Antagonist Activity (IC50)
T6 construct: expressed in transfected cells
T6 sequence (P35367 whole entry): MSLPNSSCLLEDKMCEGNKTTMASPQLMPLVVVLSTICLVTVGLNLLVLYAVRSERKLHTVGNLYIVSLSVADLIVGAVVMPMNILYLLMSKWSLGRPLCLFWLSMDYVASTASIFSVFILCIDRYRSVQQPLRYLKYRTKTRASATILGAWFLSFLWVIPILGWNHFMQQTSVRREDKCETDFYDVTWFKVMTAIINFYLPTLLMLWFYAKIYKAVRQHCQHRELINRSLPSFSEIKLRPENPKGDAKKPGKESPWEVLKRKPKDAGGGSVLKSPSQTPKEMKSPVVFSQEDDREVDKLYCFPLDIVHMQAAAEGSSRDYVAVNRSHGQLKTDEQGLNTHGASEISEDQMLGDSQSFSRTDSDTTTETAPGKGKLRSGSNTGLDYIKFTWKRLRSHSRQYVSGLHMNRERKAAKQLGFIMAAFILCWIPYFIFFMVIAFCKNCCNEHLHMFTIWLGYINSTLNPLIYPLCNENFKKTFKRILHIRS
Method: as §1, §2, §3, §4

5-HT2C receptor (HTR2C) = target: T7, 5-HT2C receptor (HTR2C) (Homo sapiens, UniProt P28335); experiment: GPCR selectivity cellular assay; assay type: cell-based; settings: for EC50: Agonism, read-out: Agonist Activity (EC50); for IC50: Antagonism, read-out: Antagonist Activity (IC50)
T7 sequence (P28335 33-458): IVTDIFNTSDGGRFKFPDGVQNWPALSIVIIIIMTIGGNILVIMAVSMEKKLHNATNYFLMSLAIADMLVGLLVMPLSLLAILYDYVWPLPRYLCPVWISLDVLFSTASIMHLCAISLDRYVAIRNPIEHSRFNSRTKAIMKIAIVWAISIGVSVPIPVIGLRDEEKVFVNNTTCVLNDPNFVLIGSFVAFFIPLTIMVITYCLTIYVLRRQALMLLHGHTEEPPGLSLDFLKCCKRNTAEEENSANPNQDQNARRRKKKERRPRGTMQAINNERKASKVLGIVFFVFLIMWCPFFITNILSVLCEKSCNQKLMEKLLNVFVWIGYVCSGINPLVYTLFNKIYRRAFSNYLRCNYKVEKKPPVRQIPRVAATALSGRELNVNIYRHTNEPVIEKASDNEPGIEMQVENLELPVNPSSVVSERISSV
Method: as §1, §2, §3, §4

CB1 receptor (CNR1) = target: T8, CB1 receptor (CNR1) (Homo sapiens, UniProt P21554); experiment: GPCR selectivity cellular assay; assay type: cell-based
T8 construct: expressed in transfected cells
T8 sequence (P21554 whole entry): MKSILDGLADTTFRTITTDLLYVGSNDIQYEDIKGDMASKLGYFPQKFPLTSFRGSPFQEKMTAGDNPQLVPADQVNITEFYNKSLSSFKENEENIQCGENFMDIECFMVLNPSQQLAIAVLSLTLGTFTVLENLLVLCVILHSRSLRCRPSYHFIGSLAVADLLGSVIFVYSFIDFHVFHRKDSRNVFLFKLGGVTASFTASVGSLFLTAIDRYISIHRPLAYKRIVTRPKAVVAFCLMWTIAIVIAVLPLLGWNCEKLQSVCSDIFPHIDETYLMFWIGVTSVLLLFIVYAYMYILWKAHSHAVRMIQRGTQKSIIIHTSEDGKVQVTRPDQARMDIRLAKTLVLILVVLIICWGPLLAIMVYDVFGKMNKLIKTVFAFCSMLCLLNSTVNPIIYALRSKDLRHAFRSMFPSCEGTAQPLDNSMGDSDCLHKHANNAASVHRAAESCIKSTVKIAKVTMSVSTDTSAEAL
Method: as §1, §2, §3, §4

[2] = test system: wild-type mice (C57BL6J strain); experiment: Cpd 48/80-induced itch behavioral study in wild-type mice; assay type: in vivo, mouse
Method: On the day of the experiment, animals were allowed to acclimatize to the test chamber for 10 min prior to injection. Mice received a single PO dose of Compound B (or vehicle) as a suspension in 1% methylcellulose at a dose level of 3 mg/kg (dose volume 10 mL/kg). Scratching behavior was monitored over 30 min following a single intra-dermal injection of 10 μL of Cpd 48/80 (10 μg/mL) or vehicle (saline) at 3 h post-dose of the antagonist. A bout of scratching was defined as a hindpaw directed continuous scratching movement at the injection site. The scratching behavior scorer was blinded to treatment.
Supplemental Figure 3: Oral treatment with the potent and selective human MRGPRX2 […]
type mice. The itch behavioral study for wild-type mice (C57BL6J strain) was performed the same way as descripted in the Methods section as for human MRGPRX2 knock-in mice. Compound 48/80 […]
control (18.4 +/- 3.8, n=7) mice (mean +/- SEM; *P < 0.05, Student's t test). As expected, no effect on the scratching behavior (39.8 +/- 12.6, n=6; P=0.795) was observed by oral administration of Compound B to the Compound 48/80 treated mice. […]

[3] = Blood-free concentration at end of itch observation period; assay type: in vivo, mouse; settings: 3 mg/kg PO, average ± SD
Method: Figure 6 Oral treatment with the potent and selective MRGPRX2 antagonist, Compound B (3 mg/kg), blocks Cpd 48/80–induced itch response using human MRGPRX2 knock-in mice. […] Average ± SD blood-free concentration of antagonist measured at end of “itch” observation period was 19 ± 16 nM Compound B.
This study provides pharmacological evidence that MRGPRX2 is solely responsible for mediating an SP response in a human tissue, in this instance, skin. Finally, human MRGPRX2 knock-in mice were used to provide initial proof of target engagement of MRGPRX2 antagonists in the skin using an established behavioral scratching model.

[4] = Agonism, read-out: Agonist Activity (EC50)

Compound | IC50 (NK1 receptor (TACR1)) | EC50 (5-HT2B receptor (HTR2B)) | EC50 (5-HT1B receptor (HTR1B)) | EC50 (M1 receptor (CHRM1)) | IC50 (M1 receptor (CHRM1)) | IC50 (D1 receptor (DRD1)) | IC50 [1] | IC50 (V1A receptor (AVPR1A)) | IC50 (H1 receptor (HRH1)) | EC50 (5-HT2C receptor (HTR2C)) | IC50 (5-HT2C receptor (HTR2C)) | further results
CC1(C)C(C(=O)Nc2ccccn2)C1(C)C [Compound A] | > 25 µM | 27.1 µM | 11.9 µM | > 50 µM | > 50 µM | > 100 µM | > 25 µM | > 50 µM | > 25 µM | > 100 µM | > 100 µM | EC50 (k-Receptor (OPRK1)): > 100 µM; EC50 (5-HT2A receptor (HTR2A)): > 100 µM; IC50 (5-HT2A receptor (HTR2A)): 41.4 µM; EC50 (CB1 receptor (CNR1)): > 25 µM
C[C@@H](C(=O)Nc1cnc(Oc2ccc(F)cc2F)cn1)N1CCC(F)(F)[C@@H](c2cc[n+]([O-])cc2)C1 [Compound B] | > 25 µM | > 100 µM | > 50 µM | > 50 µM | > 50 µM | > 100 µM | > 25 µM | > 50 µM | > 25 µM | > 100 µM | > 50 µM | In vivo PK profile (Pharmacokinetic profile): good in vivo PK profile; Oral bioavailability (Pharmacokinetic profile; in vivo, po): good oral bioavailability; EC50 (k-Receptor (OPRK1); [4]): > 100 µM; EC50 (5-HT2A receptor (HTR2A); [4]): > 100 µM; IC50 (5-HT2A receptor (HTR2A); Antagonism, read-out: Antagonist Activity (IC50)): > 100 µM; EC50 (CB1 receptor (CNR1); [4]): > 25 µM; Effect on Cpd 48/80-induced scratching behavior ([2]; 3 mg/kg oral, wild-type mice): did not block; also recorded: no effect was observed; Scratching counts ([2]; Compound B 3 mg/kg oral in Compound 48/80 treated wild-type mice, mean +/- SEM, n=6): 39.8 +/- 12.6; Blood-free concentration of antagonist [3]: 19 ± 16 nM and 19 nM
